In the NIST ThermoML archive (doi:10.1016/j.tca.2007.09.001):
± gives the expanded uncertainty stated by the source.

Assay: molar heat capacity at constant pressure
Conditions: 101.33 kPa, Crystal, Large sample (1 g) DSC

[Co+3].[Nd+3].[O-2].[O-2].[O-2] [cobalt(III) neodymium(III) oxide]
Conditions	molar heat capacity at constant pressure [J/K/mol]
130 K	57.2 ± 1.1
140 K	62.7 ± 1.3
150 K	67.7 ± 1.4
160 K	72.3 ± 1.4
170 K	76.4 ± 1.5
180 K	80.2 ± 1.6
190 K	83.5 ± 1.7
200 K	86.5 ± 1.7
210 K	89.2 ± 1.8
220 K	91.6 ± 1.8
230 K	93.8 ± 1.9
240 K	95.8 ± 1.9
250 K	97.8 ± 2
260 K	98.7 ± 2
270 K	100.5 ± 2
280 K	102.3 ± 2
290 K	104.1 ± 2.1
298.15 K	105.8 ± 2.1
300 K	105.9 ± 2.1
325 K	110.3 ± 2.2
350 K	116 ± 2.3
375 K	120.4 ± 2.4
400 K	122.9 ± 2.5
425 K	124.8 ± 2.5
450 K	127.1 ± 2.5
475 K	130.3 ± 2.6
500 K	134.5 ± 2.7
525 K	139.2 ± 2.8
550 K	144.1 ± 2.9
575 K	148.3 ± 3
600 K	151.4 ± 3
625 K	153.2 ± 3.1
650 K	153.3 ± 3.1
675 K	152.1 ± 3
700 K	149.9 ± 3
725 K	147.1 ± 2.9
750 K	144.3 ± 2.9
775 K	141.9 ± 2.8
800 K	140.3 ± 2.8
825 K	139.4 ± 2.8
850 K	138.5 ± 2.8
